Measured values: EP0888346B1, “CORALYNE ANALOGS AS TOPOISOMERASE INHIBITORS” (RUTGERS, THE STATE UNIVERSITY OF NEW JERSEY, priority 1996, dated 1997)
Values after ≈ are worked out from the molar mass of the structure shown. Like-named read-outs stand apart in the source and are kept apart here. Each block holds one compound with its values, some of them ahead of it.

Key:
[1] = target: T1, human topoisomerase I (Homo sapiens, UniProt P11387); experiment: Topo I cleavage assay (plasmid YEpG DNA); assay type: biochemical; conditions: concentration relative to camptothecin (CPT) = 1 producing the same cleavage on the plasmid DNA
T1 construct: 15 amino acid vector-derived fusion (pET-11a leader); made in house; host or cells: E. coli BL21(DE3)
T1 sequence (P11387 1-765): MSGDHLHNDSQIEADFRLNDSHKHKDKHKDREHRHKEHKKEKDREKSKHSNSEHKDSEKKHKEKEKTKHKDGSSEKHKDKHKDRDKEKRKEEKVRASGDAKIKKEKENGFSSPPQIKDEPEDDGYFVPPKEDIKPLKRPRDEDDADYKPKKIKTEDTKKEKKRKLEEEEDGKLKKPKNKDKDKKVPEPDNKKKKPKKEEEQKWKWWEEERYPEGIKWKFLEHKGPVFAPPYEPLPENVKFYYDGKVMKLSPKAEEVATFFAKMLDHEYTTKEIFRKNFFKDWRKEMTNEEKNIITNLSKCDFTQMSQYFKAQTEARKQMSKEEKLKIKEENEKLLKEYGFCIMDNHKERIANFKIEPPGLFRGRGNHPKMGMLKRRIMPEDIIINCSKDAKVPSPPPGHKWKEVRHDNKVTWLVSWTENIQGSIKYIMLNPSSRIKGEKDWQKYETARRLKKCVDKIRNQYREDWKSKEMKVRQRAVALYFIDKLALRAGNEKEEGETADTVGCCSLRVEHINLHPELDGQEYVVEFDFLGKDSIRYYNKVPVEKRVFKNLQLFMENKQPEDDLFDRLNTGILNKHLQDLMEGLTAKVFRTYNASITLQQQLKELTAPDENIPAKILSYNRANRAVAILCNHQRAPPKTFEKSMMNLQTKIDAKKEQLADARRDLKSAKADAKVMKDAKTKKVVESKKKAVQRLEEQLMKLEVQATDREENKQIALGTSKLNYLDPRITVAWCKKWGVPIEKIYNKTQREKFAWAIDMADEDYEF
From the text: To obtain large quantity of human topoisomerase I, the human topoisomerase I cDNA was cloned into the pET-11a vector, in which transcription of the cDNA is under the control of the inducible T7 promoter (Studier et al., Methods in Enzymol., Vol. 185:60-89, San Diego: Academic Press (1990)). Briefly, a 3.4 kb DNA fragment containing the entire coding sequence of human topoisomerase I and approximately 1 kb of untranslated region downstream of the stop codon was isolated from the plasmid YCpGAL1-hTOP1 (Bjornsti et al., Cancer Res. 49:6318-6323 (1989)) by cutting at the BamHI and EcoRI sites. The vector pET-11a was cut with the same restriction enzymes, dephosphorylated and ligated to the insert in the proper reading-frame downstream of the vector cloning site. The ligation mixture was used to transform E. coli, the correct clone pET1B was isolated (see figure 2A for the map) and its identity confirmed by restriction mapping. Since the translational start in pET is positioned at an upstream NdeI site, the expressed topoisomerase I has a 15 amino acid fusion at its N-terminus. pET1B was then transformed into E. coli BL21(DE3), and, upon induction with 0.4 mM IPTG for 1 hour, the bacterial lysate was analyzed by 10 % SDS-PAGE. Expression was confirmed by Western blotting using rabbit antibodies against human topoisomerase I. Isolation of the expressed protein was done by a simple procedure. Briefly, E. coli cells were lysed by repeated sonic bursts. The sonic extract was made in 1 M NaCl and 6% polyethylene glycol (PEG) to remove nucleic acids. The PEG supernatant was chromatographed directly on a hydroxyapatite column. Expressed human DNA topoisomerase I was eluted at the 0.6 M potassium phosphate step. The eluted enzyme was dialyzed against 50% glycerol, 30 mM potassium phosphate (pH 7.0), 1 mM dithiothreitol (DTT) and 0.1 mM EDTA and stored at -20°C.
(§1) Cleavage assays for the recombinant topoisomerases I and calf thymus topoisomerases I and II were done as described (Liu et al., J. Biol. Chem. 258:15365-15370 (1983)). The plasmid YEpG DNA used for the cleavage assays was prepared and labeled at its 3'-end using the published procedures.

[2] = tested on: calf thymus topoisomerase II; experiment: Topo II cleavage assay (plasmid YEpG DNA); assay type: biochemical; conditions: concentration relative to VM-26 = 1 producing the same cleavage on the plasmid DNA
From the text: The plasmid pET11a and the E. coli strain BL21(DE3) used for enzyme expression were purchased from Novagen. IPTG was purchased from Sigma. The ECL system used for the Western blotting analysis of bacterial lysates was from Amersham (UK). All the restriction enzymes and Vent polymerase were from New England Biolabs. Mammalian topoisomerase II was isolated from calf thymus glands according to the published procedure (Halligan et al., J. Biol. Chem. 260:2475-2482 (1985)). The single copy yeast plasmids YCpGAL1 expressing various topoisomerase I genes in JN2-134 yeast strain were a kind gift of Dr. M-A. Bjornsti (Thomas Jefferson University, Philadelphia, PA). All bacterial and yeast media were from Difco (Detroit, MI), while cell culture media were purchased from Gibco-BRL (Gaithersburg, MD).
as §1

[3] = tested on: Human lymphoblast RPMI 8402 cells; experiment: MTT-microtiter plate tetrazolinium cytotoxicity assay (MTA); assay type: cell-based
From the text: (§2) The results were plotted and the IC50 then measured.

[4] = tested on: camptothecin-resistant CPT-K5 cells; experiment: MTT-microtiter plate tetrazolinium cytotoxicity assay (MTA), camptothecin-resistant cells
Experimental: The IC50 of the drugs tested were determined by the MTT-microtiter plate tetrazolinium cytotoxicity assay (MTA) (Mosmann, T., J. Immunol. Methods 65:55-63 (1983); Denizot et al., J. Immunol. Methods 89:271-277 (1986)). Human lymphoblast RPMI 8402 cells and their camptothecin-resistant CPT-K5 cells (Andoh et al., Proc. Natl. Acad. Sci., USA 84:5565-5569 (1987)) were kindly provided by Dr. Toshiwo Andoh (Aichi Cancer Center Research Institute, Nagoya, Japan). […] Cells (2000 cells/well, seeded in […] growth medium) were grown in suspension at 37°C in 5% CO2 and maintained by regular passage in RPMI medium supplemented with 10% heat inactivated fetal bovine serum, L-glutamine (2 mM), penicillin (100 U/ml), and streptomycin (0.1 mg/ml). The cells were exposed continuously for 4 days to different drug concentrations, and assayed at the end of the fourth day. Each concentration and the no drug control were repeated at least twice in 6 replica wells. The results were plotted and the IC50 then measured. The drug sensitive human epidermoid carcinoma KB 3-1 cell line and its vinblastine-selected multidrug-resistant variant KB-V1 cells (Akiyama et al., Genetics 11:117-126 (1985)) were kindly provided by Dr. Michael Gottesmann (National Cancer Institute). They were grown as monolayer cultures at 37°C in 5% CO2 and maintained by regular passage in Dulbecco's minimal essential medium supplemented with 10% heat inactivated fetal bovine serum. KB-V1 cells were maintained in the presence of […] vinblastine.

[5] = tested on: human epidermoid carcinoma KB 3-1 cell line; experiment: MTA cytotoxicity assay, epidermoid carcinoma cells; assay type: cell-based; conditions: KB 3-1, 96 h
Experimental: as §2
(§3) The coralyne analog 7c was tested for its effectiveness against glioblastoma cells. The assay used was similar to that described above for the RPMI-8402 cell line. The results are shown in table 2 below which compares the effect of Compound 7c against the leukemia cell line (RPMI 8402), epidermal carncinoma (KB3-1) and glioblastoma (SF-268): Table 2

[6] = tested on: glioblastoma cell line SF-268; experiment: MTA cytotoxicity assay, glioblastoma cells; assay type: cell-based; conditions: for IC50: Homo sapiens, SF-268, 96 h, read-out: Cytotoxicity SF-268
Experimental: as §2, §3

[7] = Homo sapiens, RPMI 8402, 96 h, read-out: Cytotoxicity IC50 RPMI
[8] = Homo sapiens, CPT-K5, 96 h, read-out: Cytotoxicity IC50 CPT-K5

Compound: COc1cc2cc3[n+](c(C)c2cc1OC)CCc1c-3ccc2c1OCO2 [Compound 7c, 5,6-Dihydro-8-methyl-3,4-methylenedioxy-10,11-dimethoxydibenzo[a,g]quinolizinium acetosulfate]
Topo I-mediated DNA cleavage (REC, Relative Effective Concentration) [1]: 10 | Topo II-mediated DNA cleavage (REC, Relative Effective Concentration) [2]: 30 | IC50 [3, 7]: 0.6 µM | IC50 ([3]; Homo sapiens, RPMI 8402, 96 h, read-out: Cytotoxicity RPMI 8402): 0.3 µg/mL | IC50 [4, 8]: 6.1 µM | IC50 ([5]; read-out: Cytotoxicity KB3-1): 0.06 µg/mL | cytotoxicity against glioblastoma cells (in words) [6]: exceptional cytotoxicity | IC50 [6]: 0.008 µg/mL

Compound: COc1cccc2c1C(=O)c1c(O)c3c(c(O)c1C2=O)C[C@@](O)(C(=O)CO)C[C@@H]3O[C@H]1C[C@H](N)[C@H](O)[C@H](C)O1 [doxorubicine]
IC50 ([3]; Homo sapiens, RPMI 8402, 96 h, leukemia cell line, Table 2, read-out: Cytotoxicity RPMI 8402): 0.8 µg/mL | IC50 ([5]; epidermal carcinoma, Table 2, read-out: Cytotoxicity KB3-1): 0.1 µg/mL (≈ 0.184 µM) | IC50 ([6]; glioblastoma, Table 2): 0.8 µg/mL (≈ 1.47 µM)

Compound: COc1cc2c(cc1OC)-c1cc3cc(OC)c(OC)cc3c(C)[n+]1CC2 [Compound 7a, 5,6-Dihydro-8-methyl-2,3,10,11-tetramethoxydibenzo[a,g]quinolizinium acetosulfate]
Topo I-mediated DNA cleavage (REC, Relative Effective Concentration) [1]: 5 | Topo II-mediated DNA cleavage (REC, Relative Effective Concentration) [2]: >1000 | IC50 [3, 7]: 5.9 µM | IC50 [4, 8]: > 20 µM

Compound: COc1cc2cc3c4cc(OC)c(OC)cc4cc[n+]3cc2cc1OC.[Cl-] [Compound 10a, 2,3,10,11-Tetramethoxydibenzo[a,g]quinolizinium chloride]
Topo I-mediated DNA cleavage (REC, Relative Effective Concentration) [1]: 1000 | Topo II-mediated DNA cleavage (REC, Relative Effective Concentration) [2]: 10 | IC50 [3, 7]: 13 µM | IC50 [4, 8]: > 32 µM

Compound: COc1cc2cc3[n+](c(C)c2cc1OC)CCc1c-3ccc(OC)c1OC [Compound 7b, 5,6-Dihydro-8-methyl-3,4,10,11-tetramethoxydibenzo[a,g]quinolizinium acetosulfate]
Topo I-mediated DNA cleavage (REC, Relative Effective Concentration) [1]: 1000 | Topo II-mediated DNA cleavage (REC, Relative Effective Concentration) [2]: 1000 | IC50 [3, 7]: 6.9 µM | IC50 [4, 8]: 14 µM

Compound: COc1ccc(Cc2nccc3c4c(ccc23)OCO4)cc1OC [Compound 9c, 5,6-Methylenedioxy-1-(3,4-dimethoxybenzyl)isoquinoline]
Topo I-mediated DNA cleavage (REC, Relative Effective Concentration) [1]: >1000 | Topo II-mediated DNA cleavage (REC, Relative Effective Concentration) [2]: >1000 | cytotoxicity against RPMI 8402 cells (in words) [3]: appreciable cytotoxicity | IC50 [3, 7]: 9.3 µM | IC50 [4, 8]: 15 µM

Compound: COc1ccc(Cc2nccc3cc(OC)c(OC)cc23)cc1OC [Compound 9a]
Topo I-mediated DNA cleavage (REC, Relative Effective Concentration) [1]: >1000 | Topo II-mediated DNA cleavage (REC, Relative Effective Concentration) [2]: 1000 | IC50 ([3]; Homo sapiens, RPMI 8402, 96 h, 4 days of continuous drug exposure, read-out: Cytotoxicity IC50 RPMI): 24 µM | IC50 [4, 8]: 29 µM

More lines, main results first:

Topo I-mediated DNA cleavage (REC, Relative Effective Concentration) [1]: >1000
Compound: COc1cc2cc3c4ccc(OC)c(OC)c4cc[n+]3cc2cc1OC.[Cl-] [Compound 10b, 3,4,10,11-Tetramethoxydibenzo[a,g]quinolizinium chloride]
Topo II-mediated DNA cleavage (REC, Relative Effective Concentration) [2]: 100 | IC50 [3, 7]: 2.6 µM | IC50 [4, 8]: 5.2 µM

Topo I-mediated DNA cleavage (REC, Relative Effective Concentration) [1]: 10
Compound: COc1cc2cc3c4ccc5c(c4cc[n+]3cc2cc1OC)OCO5.[Cl-] [Compound 10c, 3,4-Methylenedioxy-10,11-dimethoxydibenzo[a,g]quinolizinium chloride]
Topo II-mediated DNA cleavage (REC, Relative Effective Concentration) [2]: 2 | IC50 [3, 7]: 0.8 µM | IC50 [4, 8]: 6.8 µM

Topo I-mediated DNA cleavage (REC, Relative Effective Concentration) [1]: >1000
Compound: Cc1nc(-c2ccc(O)c(O)c2)cc2cc(O)c(O)cc12 [Compound 13, 6,7-Dihydroxy-1-methyl-3-(3,4-dihydroxyphenyl)isoquinoline]
Topo II-mediated DNA cleavage (REC, Relative Effective Concentration) [2]: >1000 | cytotoxicity against RPMI 8402 cells (in words) [3]: appreciable cytotoxicity | IC50 [3, 7]: 7.1 µM | IC50 [4, 8]: 99 µM

Topo I-mediated DNA cleavage (REC, Relative Effective Concentration) [1]: 1000
Compound: 6,7-Dihydroxy-1,2-dimethyl-3-(3, 4-dihydroxyphenyl)isoquinolinium methosulfate [Compound 15]
Topo II-mediated DNA cleavage (REC, Relative Effective Concentration) [2]: >1000 | cytotoxicity against RPMI 8402 cells (in words) [3]: appreciable cytotoxicity | IC50 ([3]; rpmi 8402 cells, 96 h): 7.3 µM | IC50 ([4]; cpt-k5 cells, 96 h): > 122 µM

Topo I-mediated DNA cleavage (REC, Relative Effective Concentration) [1]: 10
Compound: 8-Methyl-2,3,10,11-Tetramethoxydibenzo[a,g]quinolizinium acetosulfate [Compound 2a]
Topo II-mediated DNA cleavage (REC, Relative Effective Concentration) [2]: >1000 | IC50 ([3]; rpmi 8402 cells, 96 h): 4.9 µM | IC50 ([4]; cpt-k5 cells, 96 h): 20 µM
